Data published in ChEMBL document CHEMBL1152097, “Preparation of neurotensin analogs with a novel pro-tyr replacement” (Bioorg Med Chem Lett, 1995).

Target: Neurotensin receptor type 1 (Rattus norvegicus, UniProt P20789)
Experiment: Tested for binding affinity against Neurotensin receptor

Neurotensin receptor type 1, sequence (P20789 whole entry): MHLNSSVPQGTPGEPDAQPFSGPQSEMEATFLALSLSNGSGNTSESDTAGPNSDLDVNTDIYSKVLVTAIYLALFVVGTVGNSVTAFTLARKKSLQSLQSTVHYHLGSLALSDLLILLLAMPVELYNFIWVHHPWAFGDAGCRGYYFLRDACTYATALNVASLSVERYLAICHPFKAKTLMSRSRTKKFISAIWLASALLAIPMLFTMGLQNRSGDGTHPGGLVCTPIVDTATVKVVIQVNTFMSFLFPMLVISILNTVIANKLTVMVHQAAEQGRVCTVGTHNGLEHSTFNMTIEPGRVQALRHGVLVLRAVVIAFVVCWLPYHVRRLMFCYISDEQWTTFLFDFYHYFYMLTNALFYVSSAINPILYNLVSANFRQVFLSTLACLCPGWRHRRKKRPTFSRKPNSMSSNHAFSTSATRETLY

| SMILES | Ki [nM] |
| --- | --- |
| CC[C@H](C)[C@H](NC(=O)N(Cc1ccc(O)cc1)c1cccc(NC(=O)[C@H](CCCCN)NC(=O)OC(C)(C)C)c1F)C(=O)N[C@@H](CC(C)C)C(=O)O | 2200 |
| CC[C@H](C)[C@H](NC(=O)[C@H](Cc1ccc(O)cc1)c1cccc(NC(=O)[C@H](CCCCN)NC(=O)OC(C)(C)C)c1)C(=O)N[C@@H](CC(C)C)C(=O)O | 29 |

The remaining lines, values ahead:

| Ki [nM] | SMILES |
| --- | --- |
| 730 | CC[C@H](C)[C@H](NC(=O)N(Cc1ccc(O)cc1)c1cccc(NC[C@H](CCCCN)NC(=O)OC(C)(C)C)c1)C(=O)N[C@@H](CC(C)C)C(=O)O |
| > 10000 | CC[C@H](C)[C@H](NC(=O)N(Cc1ccc(O)cc1)c1ccc(F)c(NC(=O)[C@H](CCCCN)NC(=O)OC(C)(C)C)c1)C(=O)N[C@@H](CC(C)C)C(=O)O |
| 890 | CC[C@H](C)[C@H](NC(=O)N(Cc1ccc(F)cc1)c1cccc(NC(=O)[C@H](CCCCN)NC(=O)OC(C)(C)C)c1)C(=O)N[C@@H](CC(C)C)C(=O)O |
| 1250 | CC[C@H](C)[C@H](NC(=O)N(Cc1ccc(O)cc1)c1cccc(NC(=O)[C@H](CCCCN)NC(=O)OC(C)(C)C)c1)C(=O)N[C@@H](CC(C)C)C(=O)O |
